This note sets out measurements from EPA's ToxValDB 9.5 (doi:10.2903/j.efsa.2006.57r).

Values after ≈ are worked out from the molar mass of the structure shown.

Series [1] has as its system Anas platyrhynchos. The note with it: acute; oral; unspecified; mortality.
Series [2] has as its system Canidae. The note with it: chronic; duration: 1 years; oral; Dog Other; body weight.
Series [3] has as its system Apis mellifera. The note with it: acute, mortality.
In series [4] the test system is Rattus norvegicus. The note with it: oral.
Series [5] relates to Tagia sp. The note with it: acute; mortality.
The subject of series [6] is Pimephales promelas. The note with it: chronic/long-term; duration: 35 days; other.
Series [7] relates to Oryctolagus sp. The note with it: reproduction developmental.
The subject of series [8] is Ictalurus punctatus. The note with it: acute; duration: 96 hours; mortality.
In series [9] the test system is Daphnia magna. The note with it: chronic/long-term; duration: 21 days; mortality.
Series [10] relates to Colinus virginianus. The note with it: reproduction developmental; F.
The test system of series [11] is Cucumis sativus. The note with it: not reported; other.
The test system of series [12] is Typhlodromus pyri. As to the kind of experiment: LR50; higher = less toxic. The note with it: not reported; mortality.
The subject of series [13] is Aphidius rhopalosiphi. The series is described as follows: LR50; higher = less toxic. The note with it: not reported; mortality.

Consider `CCOC(=O)C1CC(=O)C(=C(O)C2CC2)C(=O)C1` (stereo not given) [Trinexapac-ethyl], for which the LD50 is more than 2000 mg/kg in series [1]; 69.6 µg/piece in series [3] (dermal); more than 108 µg/piece in series [3] (oral, unspecified); 4210 mg/kg in [4] (acute, mortality). Also, the NOAEL (commonly the highest tested level that showed no adverse finding) was 32 mg/kg-day in [2]; not above 34 mg/kg-day in [4] (subchronic, duration: 90 days, body weight); 60 mg/kg-day in series [7]. For the same compound, the LC50 in series [5] was more than 250 mg/kg; in series [8], 35 µg/mL (≈ 139 µM). Besides, the NOEC was 0.41 mg/L in [6], 2.4 mg/L in [9], not below 53.3 mg/kg-day in series [10] and more than 24 g/ha in [11]. Also, the figures for the LR50 in [12] and in [13] were 197 g/ha and 114 g/ha, respectively.
